In patent publication US8642593B2, “2,4-pyrimidinediamine compounds and prodrugs and their uses” (Rigel Pharmaceuticals, Inc., priority 2009, dated 2014):

Tests used:
[1] = system: allergen induced basophil degranulation; assay: CD63 Assay (BASOTEST, FACS, whole blood, anti-IgE); type: cell-based; conditions: for potency compared with the control in the presence of whole blood (CD63 assay): vs control compound; for IC50: whole blood, anti-IgE, Table 2, unit inferred
Description: Compounds are tested for the ability to inhibit allergen induced basophil degranulation. The BASOTEST® kit (Orpegen Pharma GmbH, #10-0500) is used in this assay. In a 5 mL FACS tube 105 μL of Heparinized whole blood, 25 μL of test compound solution (in DMSO) are incubated at room temperature for 30-60 minutes. To induce degranulation, 20 μL stimulation buffer (Reagent B) is added, and the tube is incubated for 10 min in a 37° C. water bath. Then, 100 μL of anti-IgE (2 μg/mL) is added, or 100 µL of washing solution (reagent A) is added (i.e., as a negative control). The tube is incubated for 20 min in a 37° C. water bath. Degranulation is then stopped by incubation on ice for 5 min. 20 μL of staining reagent (reagent F) is added, and the tube is incubated on ice in the dark for 20 min. 2 mL of room temperature lysing solution is added, and the tube is incubated at room temperature for 10 min. The tubes are spun down at 4° C. for 5 min at 1600 rpm, and the supernatant is discarded. 3 mL washing solution (reagent A) is added, and the tubes spun down at 4° C. for 5 min at 1600 rpm, and the supernatant is discarded. 200 μL washing solution is added to the remaining cell pellet, and the samples are incubated on ice in the dark until analysis (within 2 h). Analysis is performed using flow cytometry at 488 nm using the conditions specified in the BASOTEST® kit instructions to determine percentage of activated basophilic granulocytes.

Syk kinase = molecular target: T1, Syk kinase (Homo sapiens, UniProt P43405); assay: Fluorescence Polarization Syk kinase assay; type: biochemical; conditions: for IC50: Table 2, unit inferred, read-out: FP-based Biochem Syk; for potency compared with the control, biochemical assay: vs control compound
T1 construct: purchased Millipore #14-314
Description: Compounds are tested for the ability to inhibit Syk kinase catalyzed phosphorylation of a peptide substrate in a biochemical fluorescence polarization assay with isolated Syk kinase.
Test compound stock solutions (10 mM) containing are serially diluted in DMSO starting from 2.5 mM and then further diluted to desired concentration of 50 μM (5×) to yield 2% DMSO concentration in kinase buffer (20 mM HEPES, pH 7.4, 5 mM MgCl2, 2 mM MnCl2, 1 mM DTT, 0.1 mg/mL acetylated Bovine Gamma Globulin). The assay is carried out in a black 96 well low volume plate (Molecular Devices, #42-000-0117) by transferring compound in 2% DMSO (0.4% DMSO final) pre-mixed with ATP/substrate (TK2 peptide) in kinase buffer at room temperature. Syk kinase (Millipore, #14-314) is added to a final reaction volume of 20 μL, and the reaction is incubated for 30 minutes at room temperature. […] The reaction is stopped by addition of 20 μL of PTK quench mix containing EDTA (10 mM final)/anti-phosphotyrosine antibody (1× final)/fluorescent phosphopeptide tracer (0.5× final) diluted in FP dilution buffer to stop the reaction to a total volume of 40 μL according to the manufacturer's instructions (Invitrogen). The plate is incubated in the dark for additional 30 minutes at room temperature and then read on a Polarion fluorescence polarization plate reader (Tecan). Data are converted to amount of phosphopeptide present using a calibration curve generated by competition with the phosphopeptide competitor provided in the Tyrosine Kinase Assay Kit, Green (Invitrogen, #P2837).

[2] = molecular target: T2, Ret kinase in SK-N-SH brain neuroblastoma cells (Homo sapiens, UniProt P07949); assay: Cellular Ret Assay; type: cell-based; conditions: GDNF, Table 2, unit inferred
T2 construct: Ret is immunoprecipitated from the detergent-soluble cell lysate; host or cells: SK-N-SH brain neuroblastoma cells
T2 sequence (P07949 29-1114): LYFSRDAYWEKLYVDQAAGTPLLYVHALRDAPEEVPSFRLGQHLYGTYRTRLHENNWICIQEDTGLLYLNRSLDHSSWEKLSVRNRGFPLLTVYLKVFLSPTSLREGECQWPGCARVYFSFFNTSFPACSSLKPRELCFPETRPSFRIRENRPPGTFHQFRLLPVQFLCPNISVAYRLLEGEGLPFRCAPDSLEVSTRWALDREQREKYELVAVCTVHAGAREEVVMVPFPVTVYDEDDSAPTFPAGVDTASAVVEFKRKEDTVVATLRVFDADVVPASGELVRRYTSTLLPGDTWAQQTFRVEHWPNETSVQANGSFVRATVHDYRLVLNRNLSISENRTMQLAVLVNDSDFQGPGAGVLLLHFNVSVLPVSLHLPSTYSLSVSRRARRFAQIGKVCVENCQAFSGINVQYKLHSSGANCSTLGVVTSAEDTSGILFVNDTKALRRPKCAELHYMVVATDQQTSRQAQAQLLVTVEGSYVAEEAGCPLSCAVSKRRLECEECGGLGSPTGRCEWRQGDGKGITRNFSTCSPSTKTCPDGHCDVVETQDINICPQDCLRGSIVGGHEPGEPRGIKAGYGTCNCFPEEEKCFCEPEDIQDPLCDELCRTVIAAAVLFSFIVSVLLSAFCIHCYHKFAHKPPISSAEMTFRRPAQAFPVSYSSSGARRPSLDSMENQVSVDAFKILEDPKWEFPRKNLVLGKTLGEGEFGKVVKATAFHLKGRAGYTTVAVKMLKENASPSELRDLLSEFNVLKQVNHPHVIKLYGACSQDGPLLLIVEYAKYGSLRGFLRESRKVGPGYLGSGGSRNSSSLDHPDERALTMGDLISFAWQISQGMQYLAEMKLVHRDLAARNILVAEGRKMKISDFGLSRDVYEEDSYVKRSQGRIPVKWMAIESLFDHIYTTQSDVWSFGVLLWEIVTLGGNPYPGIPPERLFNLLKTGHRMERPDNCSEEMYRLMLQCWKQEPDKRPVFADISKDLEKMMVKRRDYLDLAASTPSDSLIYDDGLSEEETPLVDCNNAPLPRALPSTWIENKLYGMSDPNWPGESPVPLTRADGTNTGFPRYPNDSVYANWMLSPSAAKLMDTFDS
Description: Compounds are tested for the ability to inhibit Ret kinase in cells. SK-N-SH brain neuroblastoma cells (ATCC, #HTB-1, maintained and plated in DMEM (Cellgro Mediatech, #10-013-CV) with 10% fetal bovine serum (JRH, #12106-500M) are seeded in 10 cm plates in 10 mL of culture media and allowed to reach 85% confluence by the next day. The medium is replaced with 5 mL of DMEM (without fetal bovine serum) containing DMSO or test compound (final 0.1% DMSO), and incubated at 37° C./5% CO2 for 1 hour. SK-N-SH cells are then stimulated with 50 ng/mL of human recombinant GDNF (Peprotech, #450-10) for 10 minutes. Cells are washed once with cold 1×PBS and lysed with 500 μL of 1% NP-40 lysis buffer (Tris HCl pH 7.4 with 150 mM NaCl, 1 mM NaVn, 1% Nonidet-P40 (Fisher Scientific, #PI-28324), protease inhibitor tablet (Roche, 1697498)). […]
After washing with 1×TBST for 2 hours with five buffer changes, the membrane is probed with Goat anti-Mouse IgG HRP antibody (Jackson Immunoresearch Labs, #115-035-146, 1:2000) in 1×TBST+5% milk for 1 hour at room temperature. The membrane is washed with TBST for 2 hours with five buffer changes, treated with ECL plus Western Blot detection reagent (GE Healthcare, formerly Amersham, #RPN2132) according to the instruction manual, and the chemiluminescent signal is detected on Kodak Biomax MR Film (VWR, # IB8701302).

[3] = molecular target: T3, VEGF-induced phosphorylation of VEGFR in HUVEC cells (Homo sapiens, UniProt P35968); assay: Cellular VEGFR Assay; type: cell-based; conditions: for IC50: HUVEC cells, Table 2, unit inferred, read-out: Cellular VEGFR2; for selectivity against VEGF as compared to the control: vs control compound
T3 construct: VEGF-induced phosphorylation of VEGFR in HUVEC cells; host or cells: HUVEC cells
T3 sequence (P35968 20-1356): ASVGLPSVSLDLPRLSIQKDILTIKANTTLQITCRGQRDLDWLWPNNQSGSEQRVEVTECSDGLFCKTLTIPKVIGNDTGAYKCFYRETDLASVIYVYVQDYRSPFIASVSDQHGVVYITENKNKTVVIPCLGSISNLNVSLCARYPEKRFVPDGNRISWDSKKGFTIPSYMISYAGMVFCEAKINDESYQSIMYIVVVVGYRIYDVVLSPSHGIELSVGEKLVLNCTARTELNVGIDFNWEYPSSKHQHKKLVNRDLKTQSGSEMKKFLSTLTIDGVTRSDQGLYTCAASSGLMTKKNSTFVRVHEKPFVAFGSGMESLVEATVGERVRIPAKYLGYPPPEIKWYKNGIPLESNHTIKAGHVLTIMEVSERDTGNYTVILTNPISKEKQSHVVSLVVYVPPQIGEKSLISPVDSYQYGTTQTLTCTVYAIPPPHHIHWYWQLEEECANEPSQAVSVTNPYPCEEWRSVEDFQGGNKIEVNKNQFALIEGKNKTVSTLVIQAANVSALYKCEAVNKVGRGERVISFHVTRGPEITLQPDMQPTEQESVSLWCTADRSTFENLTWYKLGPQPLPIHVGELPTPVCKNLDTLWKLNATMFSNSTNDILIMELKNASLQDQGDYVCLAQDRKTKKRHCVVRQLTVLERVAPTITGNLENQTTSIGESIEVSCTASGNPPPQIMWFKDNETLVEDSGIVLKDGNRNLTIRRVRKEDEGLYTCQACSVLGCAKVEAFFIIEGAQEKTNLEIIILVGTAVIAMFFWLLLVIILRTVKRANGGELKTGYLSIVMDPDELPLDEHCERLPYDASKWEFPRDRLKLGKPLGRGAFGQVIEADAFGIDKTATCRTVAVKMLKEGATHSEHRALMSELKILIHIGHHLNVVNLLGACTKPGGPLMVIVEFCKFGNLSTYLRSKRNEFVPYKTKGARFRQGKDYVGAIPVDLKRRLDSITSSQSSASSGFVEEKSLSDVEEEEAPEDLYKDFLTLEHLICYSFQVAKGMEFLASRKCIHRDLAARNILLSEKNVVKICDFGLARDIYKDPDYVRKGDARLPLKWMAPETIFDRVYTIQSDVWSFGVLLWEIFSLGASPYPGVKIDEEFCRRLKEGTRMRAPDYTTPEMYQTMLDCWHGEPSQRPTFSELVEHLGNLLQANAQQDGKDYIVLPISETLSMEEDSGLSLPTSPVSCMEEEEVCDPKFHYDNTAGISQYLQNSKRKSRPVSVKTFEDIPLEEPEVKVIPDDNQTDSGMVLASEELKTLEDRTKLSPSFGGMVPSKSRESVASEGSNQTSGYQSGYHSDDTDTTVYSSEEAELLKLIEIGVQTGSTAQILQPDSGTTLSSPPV
Description: The coated plates are then blocked with 2% BSA in PBS for 2 hours.
Cells are washed 1× with PBS. 100 μL starvation medium (EBM2 media, Cambrex, #CC3156, containing 1% BSA and 0.2% FBS) is added and cells are returned to the incubator for 20-24 hours. Test compounds or control drugs are serially diluted in DMSO in a compound plate and further diluted 1:250 in starvation medium. 100 μL, of this 2× concentration is dosed to the cells. […] Plates are then placed on a rocker/shaker at 4° C. for 1 hour.
Phosphorylated VEGFR2 is determined by ELISA. After a wash with TBST, 30 μL/well of the cell lysate is transferred into the anti-human VEGFR2 mAb-coated plates (described above) containing 200 μL/well of 1% BSA in PBS, and incubated with shaking at 4° C. overnight. […] The signal is read using a SpectraMax M5 plate reader.

SMILES | potency compared with the control in the presence of whole blood (CD63 assay) [1] | IC50 [1] [nM] | IC50 (Syk kinase) [nM] | potency compared with the control, biochemical assay (Syk kinase) | IC50 [2] [nM] | IC50 [3] [nM] | selectivity against VEGF as compared to the control [3]
CC1(C)Oc2ccc(Nc3nc(Nc4ccc(N5CCOCC5)cc4)ncc3F)nc2NC1=O [Compound 3, N4-(2,2-Dimethyl-3-oxo-4H-5-pyrido[1,4]oxazin-6-yl)-5-fluoro-N2-(4-morpholinophenyl)-2,4-pyrimidinediamine] | more potent | 300 | 80 | somewhat less potent than the control | > 1000 | 5230 | significantly increased selectivity
CC1(C)Oc2ccc(Nc3nc(Nc4ccc(N5CCOCC5)nc4)ncc3F)nc2NC1=O [Compound 1, N4-(2,2-Dimethyl-3-oxo-4H-5-pyrido[1,4]oxazin-6-yl)-5-fluoro-N2-[6-morpholinopyridin-3-yl]-2,4-pyrimidinediamine] | more potent | 250 | 40 | somewhat less potent than the control | > 5000 | 16800 | significantly increased selectivity
